Reference: the NIST ThermoML archive (doi:10.1021/je500886a)

Assay: mn = molality of the nth substance listed, in mol/kg
Details: 101 kPa, Liquid

O=C(CO)[C@@H](O)[C@H](O)[C@@H](O)CO [L-sorbose] + O
Details	mass density [kg/m3]	viscosity [mPa·s]
288.15 K, m1 = 0.04909	–	1.162
288.15 K, m1 = 0.05105	1002.68	–
288.15 K, m1 = 0.06584	1003.7	–
288.15 K, m1 = 0.0704	–	1.173
288.15 K, m1 = 0.08456	–	1.182
288.15 K, m1 = 0.08815	1005.22	–
288.15 K, m1 = 0.1091	–	1.195
288.15 K, m1 = 0.1289	–	1.206
288.15 K, m1 = 0.1505	1009.38	–
288.15 K, m1 = 0.1507	–	1.216
298.15 K, m1 = 0.04909	–	0.907
298.15 K, m1 = 0.05105	1000.57	–
298.15 K, m1 = 0.06584	1001.57	–
298.15 K, m1 = 0.0704	–	0.916
298.15 K, m1 = 0.08456	–	0.923
298.15 K, m1 = 0.08815	1003.06	–
298.15 K, m1 = 0.1073	1004.33	–
298.15 K, m1 = 0.1091	–	0.931
298.15 K, m1 = 0.1507	–	0.947
308.15 K, m1 = 0.04909	–	0.733
308.15 K, m1 = 0.06584	998.56	–
308.15 K, m1 = 0.0704	–	0.738
308.15 K, m1 = 0.08815	1000.04	–
308.15 K, m1 = 0.1073	1001.3	–
308.15 K, m1 = 0.1091	–	0.75
308.15 K, m1 = 0.1289	–	0.756
308.15 K, m1 = 0.1317	1002.89	–
308.15 K, m1 = 0.1505	1004.1	–
308.15 K, m1 = 0.1507	–	0.762
318.15 K, m1 = 0.04909	–	0.606
318.15 K, m1 = 0.05105	993.72	–
318.15 K, m1 = 0.06584	994.7	–
318.15 K, m1 = 0.0704	–	0.611
318.15 K, m1 = 0.08456	–	0.615
318.15 K, m1 = 0.08815	996.17	–
318.15 K, m1 = 0.1073	997.41	–
318.15 K, m1 = 0.1091	–	0.62
318.15 K, m1 = 0.1289	–	0.624
318.15 K, m1 = 0.1317	998.98	–
318.15 K, m1 = 0.1505	1000.18	–
318.15 K, m1 = 0.1507	–	0.629

[Br-].[NH4+] [ammonium bromide] + O
Details	mass density, 288.15 K [kg/m3]	mass density, 298.15 K [kg/m3]	mass density, 308.15 K [kg/m3]	mass density, 318.15 K [kg/m3]	viscosity, 288.15 K [mPa·s]	viscosity, 298.15 K [mPa·s]	viscosity, 308.15 K [mPa·s]	viscosity, 318.15 K [mPa·s]
m1 = 0.05	1001.05	998.76	995.75	992.91	1.132	0.888	0.719	0.597
m1 = 0.5	1024.05	1021.81	1019.06	1015.68	1.096	0.87	0.71	0.598
m1 = 1	1049.01	1046.88	1043.31	1040.33	1.057	0.853	0.697	0.6
m1 = 2	1095.99	1092.56	1088.78	1085.68	1.002	0.827	0.678	0.602

OC[C@@H](O)[C@H](O)[C@@H](O)CO [xylitol] + O
Details	mass density, 288.15 K [kg/m3]	mass density, 298.15 K [kg/m3]	mass density, 308.15 K [kg/m3]	mass density, 318.15 K [kg/m3]	viscosity, 288.15 K [mPa·s]	viscosity, 298.15 K [mPa·s]	viscosity, 308.15 K [mPa·s]	viscosity, 318.15 K [mPa·s]
m1 = 0.04981	–	–	–	–	1.164	0.909	0.733	0.607
m1 = 0.0542	1001.89	999.75	996.72	992.86	–	–	–	–
m1 = 0.06784	–	–	–	–	1.173	0.915	0.738	0.611
m1 = 0.07245	1002.81	1000.65	997.6	993.73	–	–	–	–
m1 = 0.0852	1003.45	1001.27	998.22	994.33	–	–	–	–
m1 = 0.08897	–	–	–	–	1.183	0.922	0.743	0.615
m1 = 0.1059	–	–	–	–	1.191	0.93	0.747	0.619
m1 = 0.1095	1004.66	1002.44	999.37	995.46	–	–	–	–
m1 = 0.1313	–	–	–	–	1.204	0.939	0.755	0.624
m1 = 0.1314	1005.74	1003.49	1000.41	996.48	–	–	–	–
m1 = 0.1501	–	–	–	–	1.212	0.945	0.76	0.628
m1 = 0.1527	1006.77	1004.5	1001.41	997.46	–	–	–	–

O=C[C@H](O)[C@@H](O)[C@H](O)[C@H](O)CO [D-glucose] + O
Details	mass density [kg/m3]	viscosity [mPa·s]
288.15 K, m1 = 0.0513	–	1.167
288.15 K, m1 = 0.05146	1002.66	–
288.15 K, m1 = 0.06904	–	1.176
288.15 K, m1 = 0.07233	1004.08	–
288.15 K, m1 = 0.09026	–	1.188
288.15 K, m1 = 0.09244	1005.44	–
288.15 K, m1 = 0.1114	–	1.2
288.15 K, m1 = 0.1294	–	1.212
288.15 K, m1 = 0.149	–	1.219
298.15 K, m1 = 0.0513	–	0.911
298.15 K, m1 = 0.05146	1000.54	–
298.15 K, m1 = 0.06904	–	0.918
298.15 K, m1 = 0.07233	1001.94	–
298.15 K, m1 = 0.09026	–	0.926
298.15 K, m1 = 0.09244	1003.27	–
298.15 K, m1 = 0.1096	1004.41	–
298.15 K, m1 = 0.1114	–	0.935
298.15 K, m1 = 0.1241	1005.36	–
298.15 K, m1 = 0.1294	–	0.942
298.15 K, m1 = 0.149	–	0.951
308.15 K, m1 = 0.0513	–	0.735
308.15 K, m1 = 0.06904	–	0.741
308.15 K, m1 = 0.07233	998.9	–
308.15 K, m1 = 0.09026	–	0.747
308.15 K, m1 = 0.09244	1000.22	–
308.15 K, m1 = 0.1096	1001.34	–
308.15 K, m1 = 0.1114	–	0.755
308.15 K, m1 = 0.1241	1002.28	–
308.15 K, m1 = 0.1294	–	0.759
308.15 K, m1 = 0.1456	1003.66	–
308.15 K, m1 = 0.149	–	0.764
318.15 K, m1 = 0.0513	–	0.609
318.15 K, m1 = 0.05146	993.66	–
318.15 K, m1 = 0.06904	–	0.613
318.15 K, m1 = 0.07233	995.03	–
318.15 K, m1 = 0.09026	–	0.618
318.15 K, m1 = 0.09244	996.33	–
318.15 K, m1 = 0.1096	997.44	–
318.15 K, m1 = 0.1114	–	0.623
318.15 K, m1 = 0.1241	998.37	–
318.15 K, m1 = 0.1294	–	0.627
318.15 K, m1 = 0.1456	999.74	–
318.15 K, m1 = 0.149	–	0.632

OC[C@@H](O)[C@H](O)[C@H](O)[C@@H](O)CO [dulcitol] + O
Details	mass density, 288.15 K [kg/m3]	mass density, 298.15 K [kg/m3]	mass density, 308.15 K [kg/m3]	mass density, 318.15 K [kg/m3]	viscosity, 288.15 K [mPa·s]	viscosity, 298.15 K [mPa·s]	viscosity, 308.15 K [mPa·s]	viscosity, 318.15 K [mPa·s]
m1 = 0.0503	–	–	–	–	1.164	0.909	0.732	0.605
m1 = 0.05086	1002.35	1000.21	997.18	993.33	–	–	–	–
m1 = 0.07104	–	–	–	–	1.175	0.916	0.737	0.609
m1 = 0.0735	1003.75	1001.6	998.55	994.68	–	–	–	–
m1 = 0.08768	1004.62	1002.46	999.39	995.51	–	–	–	–
m1 = 0.08872	–	–	–	–	1.185	0.921	0.743	0.612
m1 = 0.1066	1005.78	1003.6	1000.52	996.63	–	–	–	–
m1 = 0.1091	–	–	–	–	1.196	0.928	0.747	0.616
m1 = 0.1279	1007.07	1004.88	1001.77	997.86	–	–	–	–
m1 = 0.1283	–	–	–	–	1.204	0.935	0.752	0.619
m1 = 0.1457	1008.14	1005.94	1002.81	998.89	–	–	–	–
m1 = 0.1468	–	–	–	–	1.215	0.941	0.757	0.622

OC[C@H]1O[C@@](CO)(O[C@H]2O[C@H](CO)[C@@H](O)[C@H](O)[C@H]2O)[C@@H](O)[C@@H]1O [D-sucrose] + O
Details	mass density, 288.15 K [kg/m3]	mass density, 298.15 K [kg/m3]	mass density, 308.15 K [kg/m3]	mass density, 318.15 K [kg/m3]	viscosity, 288.15 K [mPa·s]	viscosity, 298.15 K [mPa·s]	viscosity, 308.15 K [mPa·s]	viscosity, 318.15 K [mPa·s]
m1 = 0.0482	1005.4	1003.28	1000.26	996.41	–	–	–	–
m1 = 0.05054	–	–	–	–	1.198	0.934	0.751	0.621
m1 = 0.06821	1007.96	1005.82	1002.79	998.92	–	–	–	–
m1 = 0.06969	–	–	–	–	1.221	0.951	0.766	0.632
m1 = 0.08888	1010.58	1008.42	1005.37	1001.49	–	–	–	–
m1 = 0.09107	–	–	–	–	1.242	0.969	0.78	0.645
m1 = 0.1095	1013.17	1010.99	1007.92	1004.02	–	–	–	–
m1 = 0.1098	–	–	–	–	1.264	0.984	0.793	0.654
m1 = 0.1286	1015.55	1013.35	1010.27	1006.35	–	–	–	–
m1 = 0.1293	–	–	–	–	1.286	1.001	0.805	0.666
m1 = 0.1495	1018.13	1015.9	1012.8	1008.87	–	–	–	–
m1 = 0.1497	–	–	–	–	1.31	1.019	0.819	0.675

OC[C@@H](O)[C@@H](O)[C@H](O)[C@H](O)CO [D-mannitol] + O
Details	mass density, 288.15 K [kg/m3]	mass density, 298.15 K [kg/m3]	mass density, 308.15 K [kg/m3]	mass density, 318.15 K [kg/m3]	viscosity, 288.15 K [mPa·s]	viscosity, 298.15 K [mPa·s]	viscosity, 308.15 K [mPa·s]	viscosity, 318.15 K [mPa·s]
m1 = 0.04909	1002.3	1000.12	997.07	993.22	–	–	–	–
m1 = 0.05269	–	–	–	–	1.176	0.918	0.74	0.611
m1 = 0.06889	1003.56	1001.34	998.27	994.41	–	–	–	–
m1 = 0.07011	–	–	–	–	1.189	0.927	0.747	0.617
m1 = 0.09002	1004.91	1002.62	999.54	995.65	–	–	–	–
m1 = 0.09107	–	–	–	–	1.203	0.936	0.754	0.621
m1 = 0.1097	–	–	–	–	1.217	0.945	0.761	0.627
m1 = 0.1134	1006.38	1004.04	1000.93	997.03	–	–	–	–
m1 = 0.1266	1007.19	1004.82	1001.71	997.8	–	–	–	–
m1 = 0.1293	–	–	–	–	1.23	0.955	0.765	0.633
m1 = 0.1469	1008.45	1006.03	1002.9	998.97	–	–	–	–
m1 = 0.15	–	–	–	–	1.246	0.964	0.774	0.639
